The values below come from ChEMBL document CHEMBL3817741, “Synthesis, cytotoxic and urease inhibitory activities of some novel isatin-derived bis-Schiff bases and their copper(ii) complexes” (Medchemcomm, 2016).

One data set concerns NCI-H157. Kind of data set: Antiproliferative activity against human NCI-H157 cells assessed as cell growth inhibition after 48 hrs by SRB assay. It is filed as functional, cell-based. The conditions noted are these: NCI-H157, 48 h.
Data set [1] can be described thus: Antiproliferative activity against African green monkey Vero cells assessed as reduction in cell viability at 100 uM after 48 hrs by SRB assay. The format is cell-based. The conditions noted are these: chlorocebus sabaeus. (Sulforhodamine B stains cellular protein and so reports cell mass.)
For a further data set, the target named is Urease (Canavalia ensiformis, UniProt P07374). The data set is described as follows: Inhibition of Jack bean urease assessed as production of ammonia after 30 mins by indophenol method.
Data set [2] addresses Urease (Canavalia ensiformis) (UniProt P07374). Kind of data set: Inhibition of Jack bean urease assessed as production of ammonia at 10 mM after 30 mins by indophenol method.

Each structure is given as a SMILES string.

Sequence of Urease (Canavalia ensiformis) (P07374 whole entry, looked up): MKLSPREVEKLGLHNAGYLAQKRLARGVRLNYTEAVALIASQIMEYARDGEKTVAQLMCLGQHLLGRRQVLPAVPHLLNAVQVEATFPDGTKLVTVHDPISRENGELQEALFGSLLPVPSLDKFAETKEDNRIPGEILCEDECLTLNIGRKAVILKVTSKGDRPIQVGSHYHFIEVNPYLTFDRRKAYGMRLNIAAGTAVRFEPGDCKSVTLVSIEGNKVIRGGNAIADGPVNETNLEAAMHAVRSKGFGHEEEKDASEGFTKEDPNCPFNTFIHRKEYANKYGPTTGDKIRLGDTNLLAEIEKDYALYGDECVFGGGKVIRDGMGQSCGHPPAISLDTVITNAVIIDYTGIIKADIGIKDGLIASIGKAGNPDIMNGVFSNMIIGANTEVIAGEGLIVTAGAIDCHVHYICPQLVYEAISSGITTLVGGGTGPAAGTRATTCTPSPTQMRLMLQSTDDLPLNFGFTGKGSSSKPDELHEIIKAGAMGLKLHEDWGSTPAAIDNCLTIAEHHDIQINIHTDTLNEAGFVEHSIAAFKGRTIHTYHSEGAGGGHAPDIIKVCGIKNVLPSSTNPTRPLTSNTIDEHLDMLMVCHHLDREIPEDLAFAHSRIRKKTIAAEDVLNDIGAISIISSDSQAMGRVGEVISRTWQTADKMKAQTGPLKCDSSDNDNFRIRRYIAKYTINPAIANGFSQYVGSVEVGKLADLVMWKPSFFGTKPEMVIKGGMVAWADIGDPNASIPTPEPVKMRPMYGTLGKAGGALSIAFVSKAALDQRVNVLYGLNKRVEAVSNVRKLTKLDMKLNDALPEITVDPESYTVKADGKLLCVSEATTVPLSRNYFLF
Sequence of Urease (P07374 whole entry): as the sequence (P07374 whole entry, looked up) above

What is called IC50 is the midpoint of a concentration-inhibition curve. Broadly, the inhibition is the change of the read-out against control, counted positive when it falls. Take `Cc1ccc(/N=C2\C(=O)Nc3ccccc32)cc1/N=C1\C(=O)Nc2ccccc21`: the concentration for half-maximal inhibition (IC50) in the data set with NCI-H157 was found to be 3760 nM; on Urease, 1150 nM. Also, in data set [1], the inhibition at 48 h, 100 µM worked out at 23.6%. Further, in data set [2], the inhibition was above 50%.
On to `CC[C@]1(O)C[C@H]2CN(CCc3c([nH]c4ccccc34)[C@@](C(=O)OC)(c3cc4c(cc3OC)N(C=O)[C@H]3[C@@](O)(C(=O)OC)[C@H](OC(C)=O)[C@]5(CC)C=CCN6CC[C@]43[C@@H]65)C2)C1` [VINCRISTINE], for which the inhibition at 48 h, 100 µM in data set [1] is 16.8%.
For the molecule `Cc1ccc(/N=C2\C(=O)Nc3ccc([N+](=O)[O-])cc32)cc1/N=C1\C(=O)Nc2ccc([N+](=O)[O-])cc21`, the IC50 in the data set on NCI-H157 was 3730 nM; on Urease, 5860 nM. Moreover, in data set [1], the inhibition at 48 h, 100 µM turned out to be 10.9%. In data set [2], the inhibition is above 50%.
In the same order, the values of `Cc1ccc(/N=C2\C(=O)Nc3ccc(S(=O)(=O)O)cc32)cc1/N=C1\C(=O)Nc2ccc(S(=O)(=O)O)cc21` are 3880 nM, 25200 nM, 11.7% and above 50%.
For `Cc1ccc2c(c1)/C(=N/c1ccc(C)c(/N=C3\C(=O)Nc4ccc(C)cc43)c1)C(=O)N2`, the IC50 was determined as 3010 nM in the data set on NCI-H157 and 340 nM on Urease. Also, in data set [1], the inhibition at 48 h, 100 µM came out at 13.4%. Besides, the inhibition in data set [2] is above 50%.
Take `Cc1ccc(/N=C2\C(=O)Nc3ccc(Cl)cc32)cc1/N=C1\C(=O)Nc2ccc(Cl)cc21`: the IC50 in the data set on NCI-H157 was determined as 2560 nM; on Urease, 110 nM. The inhibition at 48 h, 100 µM in data set [1] was 18.5%. The inhibition in data set [2] is above 50%.
As for `Cc1ccc(/N=C2\C(=O)Nc3ccc(Br)cc32)cc1/N=C1\C(=O)Nc2ccc(Br)cc21`, the IC50 in the data set with NCI-H157 amounted to 2320 nM; at Urease, 40 nM. Also, the inhibition at 48 h, 100 µM in data set [1] was 18.7%. The inhibition in data set [2] was above 50%.
For the molecule `Cc1ccc(/N=C2\C(=O)Nc3ccc(F)cc32)cc1/N=C1\C(=O)Nc2ccc(F)cc21`, the half-inhibitory concentration (IC50) turned out to be 2990 nM with NCI-H157 and 1650 nM at Urease. In data set [1], the inhibition at 48 h, 100 µM was found to be 22.1%. In data set [2], the inhibition is above 50%.
